# pIC50: −log10 of the molar value. Read-outs that look alike come from different tables or passages of the source.
# Legend:
# [1] = tested on: Staphylococcus aureus ATCC 43300 (MRSA); assay: Antimicrobial MIC assay (CO-ADD) against S. aureus MRSA; assay type: cell-based; conditions: Staphylococcus aureus, read-out: MIC S.a.
# From the text: (§1) Antimicrobial evaluation against S. aureus (MRSA) (ATCC 43300), E. coli (ATCC 25922), K. pneumoniae (ATCC 700603), A. baumannii (ATCC 19606), C. albicans (ATCC 90028), and C. neoformans (ATCC 208821) was undertaken at the Community for Open Antimicrobial Drug Discovery at The University of Queensland (Australia) according to their standard protocols as reported previously.
# [2] = tested on: Escherichia coli ATCC 25922; assay: Antimicrobial MIC assay (CO-ADD) against E. coli; assay type: cell-based; conditions: Escherichia coli, ATCC25922, read-out: MIC E.c.
# From the text: as §1
# [3] = tested on: Klebsiella pneumoniae ATCC 700603; assay: Antimicrobial MIC assay (CO-ADD) against K. pneumoniae; assay type: cell-based; conditions: Klebsiella pneumoniae, ATCC700603, read-out: MIC K.p.
# From the text: as §1
# [4] = tested on: Pseudomonas aeruginosa ATCC 27853; assay: Antimicrobial MIC assay (CO-ADD) against P. aeruginosa; assay type: cell-based; conditions: Pseudomonas aeruginosa, ATCC27853, read-out: MIC P.a.
# [5] = tested on: Acinetobacter baumannii ATCC 19606; assay: Antimicrobial MIC assay (CO-ADD) against A. baumannii; assay type: cell-based; conditions: Acinetobacter baumannii, ATCC19606, read-out: MIC A.b.
# From the text: as §1
# [6] = tested on: Candida albicans ATCC 90028; assay: Antimicrobial MIC assay (CO-ADD) against C. albicans; assay type: cell-based; conditions: mean (n = 2)
# From the text: as §1
# [7] = tested on: Cryptococcus neoformans ATCC 208821; assay: Antimicrobial MIC assay (CO-ADD) against C. neoformans; assay type: cell-based
# From the text: as §1
# [8] = Cytotoxicity assay on HEK293; assay type: cell-based, human; conditions: human, HEK293 human embryonic kidney cells; concentration at 50% cytotoxicity on HEK293; mean (n = 2); top dose tested 32 μg/mL
# Procedure: Cytotoxicity assays were conducted using the protocols previously reported.
# [9] = tested on: human red blood cells; assay: Hemolytic assay; assay type: cell-based; conditions: concentration at 10% hemolytic activity on human red blood cells; mean (n = 2); top dose tested 32 μg/mL
# Procedure: Hemolytic assays were conducted using the protocols previously reported.
# [10] = Candida albicans, ATCC90028, read-out: MIC C.a., Candida albicans ATCC 90028
# [11] = Cryptococcus neoformans, ATCC208821, read-out: MIC C.n.
Compound,MIC [1],MIC [2],MIC [3],MIC [4],MIC [5],"MIC [6, 10]","MIC [7, 11]",pIC50 [8],Hemolysis (HC10) [9],"MIC ([6]; ATCC90028, Candida albicans ATCC 90028, read-out: MIC C.a.)","MIC ([7]; ATCC208821, Cryptococcus neoformans ATCC 208821, mean (n = 2), read-out: MIC C.n.)"
"C[C@H](CCC(=O)NCCCNCCCCCCNCCCNC(=O)CC[C@@H](C)[C@H]1CC[C@H]2[C@@H]3C[C@H](O)[C@@H]4C[C@H](O)CC[C@]4(C)[C@H]3CC[C@]12C)[C@H]1CC[C@H]2[C@@H]3C[C@H](O)[C@@H]4C[C@H](O)CC[C@]4(C)[C@H]3CC[C@]12C.O=C(O)C(F)(F)F.O=C(O)C(F)(F)F [Compound 7b, N^1,N^6-Bis(3-((R)-4-((3R,5R,6S,8S,9S,10R,13R,14S,17R)-3,6-dihydroxy-10,13-dimethylhexadecahydro-1H-cyclopenta[a]phenanthren-17-yl)pentanamido)propyl)hexane-1,6-diaminium 2,2,2-trifluoroacetate]",≤ 0.21 µM,> 26 µM,> 26 µM,> 26 µM,> 26 µM,13 µM,≤ 0.21 µM,< 4.59,>26 µM,–,–
"C[C@H](CCC(=O)NCCCNCCCCCCCCCCCCNCCCNC(=O)CC[C@@H](C)[C@H]1CC[C@H]2[C@@H]3C[C@H](O)[C@@H]4C[C@H](O)CC[C@]4(C)[C@H]3CC[C@]12C)[C@H]1CC[C@H]2[C@@H]3C[C@H](O)[C@@H]4C[C@H](O)CC[C@]4(C)[C@H]3CC[C@]12C.O=C(O)C(F)(F)F.O=C(O)C(F)(F)F [Compound 7f, N^1,N^12-Bis(3-((R)-4-((3R,5R,6S,8S,9S,10R,13R,14S,17R)-3,6-dihydroxy-10,13-dimethylhexadecahydro-1H-cyclopenta[a]phenanthren-17-yl)pentanamido)propyl)dodecane-1,12-diaminium 2,2,2-trifluoroacetate]",≤ 0.19 µM,> 25 µM,> 25 µM,> 25 µM,> 25 µM,≤ 0.2 µM,≤ 0.19 µM,4.60,>25 µM,–,–
"C[C@H](CCC(=O)NCCCNCCCCNCCCNC(=O)CC[C@@H](C)[C@H]1CC[C@H]2[C@@H]3[C@@H](O)C[C@@H]4C[C@H](O)CC[C@]4(C)[C@H]3CC[C@]12C)[C@H]1CC[C@H]2[C@@H]3[C@@H](O)C[C@@H]4C[C@H](O)CC[C@]4(C)[C@H]3CC[C@]12C.O=C(O)C(F)(F)F.O=C(O)C(F)(F)F [Compound 8a, N^1,N^4-Bis(3-((R)-4-((3R,5S,7S,8R,9S,10S,13R,14S,17R)-3,7-dihydroxy-10,13-dimethylhexadecahydro-1H-cyclopenta[a]phenanthren-17-yl)pentanamido)propyl)butane-1,4-diaminium 2,2,2-trifluoroacetate]",27 µM,> 27 µM,> 27 µM,> 27 µM,> 27 µM,27 µM,> 27 µM,< 4.57,7.3 µM,–,–
"C[C@H](CCC(=O)NCCCNCCCCCCNCCCNC(=O)CC[C@@H](C)[C@H]1CC[C@H]2[C@@H]3[C@@H](O)C[C@@H]4C[C@H](O)CC[C@]4(C)[C@H]3CC[C@]12C)[C@H]1CC[C@H]2[C@@H]3[C@@H](O)C[C@@H]4C[C@H](O)CC[C@]4(C)[C@H]3CC[C@]12C.O=C(O)C(F)(F)F.O=C(O)C(F)(F)F [Compound 8b, N^1,N^6-Bis(3-((R)-4-((3R,5S,7S,8R,9S,10S,13R,14S,17R)-3,7-dihydroxy-10,13-dimethylhexadecahydro-1H-cyclopenta[a]phenanthren-17-yl)pentanamido)propyl)hexane-1,6-diaminium 2,2,2-trifluoroacetate]",1.7 µM,> 26 µM,> 26 µM,> 26 µM,> 26 µM,27 µM,> 27 µM,< 4.57,11 µM,–,–
"C[C@H](CCC(=O)NCCCNCCCCCCCNCCCNC(=O)CC[C@@H](C)[C@H]1CC[C@H]2[C@@H]3[C@@H](O)C[C@@H]4C[C@H](O)CC[C@]4(C)[C@H]3CC[C@]12C)[C@H]1CC[C@H]2[C@@H]3[C@@H](O)C[C@@H]4C[C@H](O)CC[C@]4(C)[C@H]3CC[C@]12C.O=C(O)C(F)(F)F.O=C(O)C(F)(F)F [Compound 8c, N^1,N^7-Bis(3-((R)-4-((3R,5S,7S,8R,9S,10S,13R,14S,17R)-3,7-dihydroxy-10,13-dimethylhexadecahydro-1H-cyclopenta[a]phenanthren-17-yl)pentanamido)propyl)heptane-1,7-diaminium 2,2,2-trifluoroacetate]",≤ 0.21 µM,> 26 µM,> 26 µM,> 26 µM,> 26 µM,13 µM,26 µM,< 4.59,11 µM,–,–
"C[C@H](CCC(=O)NCCCNCCCCCCCCNCCCNC(=O)CC[C@@H](C)[C@H]1CC[C@H]2[C@@H]3[C@@H](O)C[C@@H]4C[C@H](O)CC[C@]4(C)[C@H]3CC[C@]12C)[C@H]1CC[C@H]2[C@@H]3[C@@H](O)C[C@@H]4C[C@H](O)CC[C@]4(C)[C@H]3CC[C@]12C.O=C(O)C(F)(F)F.O=C(O)C(F)(F)F [Compound 8d, N^1,N^8-Bis(3-((R)-4-((3R,5S,7S,8R,9S,10S,13R,14S,17R)-3,7-dihydroxy-10,13-dimethylhexadecahydro-1H-cyclopenta[a]phenanthren-17-yl)pentanamido)propyl)octane-1,8-diaminium 2,2,2-trifluoroacetate]",≤ 0.2 µM,> 26 µM,> 26 µM,> 26 µM,> 26 µM,26 µM,13 µM,< 4.59,5.6 µM,–,–
"C[C@H](CCC(=O)NCCCNCCCCCCCCCCNCCCNC(=O)CC[C@@H](C)[C@H]1CC[C@H]2[C@@H]3[C@@H](O)C[C@@H]4C[C@H](O)CC[C@]4(C)[C@H]3CC[C@]12C)[C@H]1CC[C@H]2[C@@H]3[C@@H](O)C[C@@H]4C[C@H](O)CC[C@]4(C)[C@H]3CC[C@]12C.O=C(O)C(F)(F)F.O=C(O)C(F)(F)F [Compound 8e, N^1,N^10-Bis(3-((R)-4-((3R,5S,7S,8R,9S,10S,13R,14S,17R)-3,7-dihydroxy-10,13-dimethylhexadecahydro-1H-cyclopenta[a]phenanthren-17-yl)pentanamido)propyl)decane-1,10-diaminium 2,2,2-trifluoroacetate]",≤ 0.2 µM,> 25 µM,> 25 µM,> 25 µM,> 25 µM,3.2 µM,1.6 µM,< 4.60,3.3 µM,–,–
"CC/C(=C(\c1ccccc1)c1ccc(OCCN(C)C)cc1)c1ccccc1 [Tamoxifen, reference compound]",–,–,–,–,–,–,–,4.62,–,–,–
"OC(Cn1cncn1)(Cn1cncn1)c1ccc(F)cc1F [fluconazole, reference compound]",–,–,–,–,–,–,–,–,–,0.4 µM,26 µM
"CN[C@H](CC(C)C)C(=O)N[C@H]1C(=O)N[C@@H](CC(N)=O)C(=O)N[C@H]2C(=O)N[C@H]3C(=O)N[C@H](C(=O)N[C@H](C(=O)O)c4cc(O)cc(O)c4-c4cc3ccc4O)[C@H](O)c3ccc(c(Cl)c3)Oc3cc2cc(c3O[C@@H]2O[C@H](CO)[C@@H](O)[C@H](O)[C@H]2O[C@H]2C[C@](C)(N)[C@H](O)[C@H](C)O2)Oc2ccc(cc2Cl)[C@H]1O [vancomycin, reference compound]",0.7 µM,–,–,–,–,–,–,–,–,–,–
